US7264795B2, “Sunscreen composition” (Merck Patent Gesellschaft, priority 2001, dated 2007)

How the values were obtained:
[1] = Differential stripping of the stratum corneum (tape stripping with UV/VIS spectroscopy); format: in vitro ADME, porcine
Text: The goal of this study was to determine and compare the distribution of OMC in the stratum corneum of two different formulations as applied to porcine skin, which serves as a model for in vivo human skin applications. The method used has been established (Weigmann H-J, Lademann J, Meffert H, Schaefer H, Sterry W: Determination of the horny layer profile by tape stripping in combination with optical spectroscopy in the visible range as a prerequisite to quantify percutaneous absorption. Skin Pharmacol Appl Skin Physiol, 12:34-45 (1999)) and is described below. This method is based on conventional stripping procedures combined with UV/VIS spectroscopy to determine both the substance, to be analyzed, and, in parallel, the weight of the comeocytes. This since it is possible to obtain the complete stratum corneum with this stripping procedure, the strips thus can be shown as a horny layer profile.
Porcine ear skin is used due to its availability and well-known similarity to human skin. […] Two formulations are applied to an area of 20 cm^2 with a concentration of 2 mg/cm^2 (200 μg OMC/cm^2) and exposed for one hour. […] Afterwards, topical application and stripping was carried out using a standard procedure (The emulsion is applied with a syringe and evenly distributed with a gloved finger. After pressure application, all strips were removed from the marked area). The stripping is repeated as long as the spectral photometer has a transmission of 99.8% compared to the original tape strip as reference.
After evaluation of the amount of stratum corneum photometrically at 900 nm, the strips are extracted with methanol, centrifuged and decanted. Amounts of OMC concentrations are calculated from the ratio peak area of the OMC to an internal OMC calibration curve. The detection limit for OMC is found to be 1 μg/ml±5%. The experiments are carried out in duplicate.
Non-particulate substances lying in the furrows are distributed evenly due to the applied pressure—this releases the substances from the furrows, while particulate substances often remain. […]

[2] = Comparative release through an inert lipophilic membrane (Franz diffusion cell); format: in vitro ADME; settings: after 6 hours, finite dose 5 mg/cm^2 (572 μg OMC/cell)
Text: The goal of this study is to determine and compare the release of OMC from two different formulations through an inert lipophilic membrane which serves as a model (Jiang R, Benson H A E, Cross S E, Roberts M S. In vitro human epidermal and polyethylene membrane penetration and retention of sunscreen benzophenone-3 from a range of solvents. Pharm. Res., 15: 1863-1886 (1998)) for in vitro human skin applications. (Jiang R, Robert M S, Prankerd R J, Benson H A E. Percutaneous absorption of sunscreen agents from liquid paraffin: self-association of octyl salicylate and effects on skin flux. J. Pharm. Sci., 86: 791-796 (1997); Shah et al: In vitro release from corticosteorid ointments. J. Pham. Sci., 84(9): 1139-1140 (1995);).
Two formulations are prepared, one with free, the other with encapsulated OMC. Both contained the same amount of OMC (see Table 3).
Tuffryn® membranes (200 nm in pore size) are soaked for 30 minutes in isopropyl myristate and blotted dry with tissue paper prior to use. […]
Analysis is by HPLC, OMC concentrations are calculated from the ratio peak area of the OMC to an internal standard and calibration curve.

[3] = Epidermal uptake of UV filters by human epidermis (Franz diffusion cell); format: in vitro ADME
Protocol: The goal of this study is to determine and compare both the release of OMC from two different formulations through human epidermal membranes and the epidermal uptake of OMC.
Human female abdominal skin is used to heat-separate the epidermis from the dermis. The epidermal membranes thus obtained are mounted onto a Franz diffusion cell. The receptor cell contains PBS and 4% (w/v) bovine serum albumin, resulting in a pH of 7.4. The temperature is set to 35° C. Each of the two formulations is applied to 3 cells, non-occluded, with a finite dose concentration of 5 mg/cm^2 (572 μg OMC/cell). […] The duration of examination is 6 hours, 200 μl of the receptor phase is removed at specific points of time and analyzed by HPLC. To analyze the epidermal uptake, the remaining formulation is wiped from the surface of the epidermis with alcohol-soaked tissue and the skin is stripped once with adhesive tape, which is then discarded. A circular punch is used to remove a constant area of epidermis exposed to the formulations. After extraction, OMC concentrations are analyzed by HPLC.

## CCCCC(CC)COC(=O)C=Cc1ccc(OC)cc1 (centres unmarked) [Free OMC, octyl methoxycinnamate]
[1]; 10% OMC formulation, 2 mg/cm^2, exposed one hour, 100% SC = 20 μm
  Share of the stratum corneum (SC) down to which OMC is found: 75 % of the SC
[1]; 10% OMC formulation, 2 mg/cm^2, exposed one hour, horny layer about 20 μm
  Maximum depth in the SC where OMC can be detected: ≤ 15 μm
[1]; strip at 15 μm depth (75% of the SC)
  OMC amount in the deepest strip: 1 μg/cm^2
[2]
  OMC reaching the receptor cell as share of the applied amount: 12.5%
[2]; 8.8% OMC, n=3
  OMC reaching the receptor cell: 72 µg
[3]; 6 hours, finite dose 5 mg/cm^2 (572 μg OMC/cell), 8.8% OMC
  UV filter penetrating the epidermis into the receptor phase: no significant amount of UV filter penetrating the epidermis
[3]; after 6 hours of exposure, finite dose 5 mg/cm^2, 8.8% OMC
  Epidermal uptake of OMC per mg of epidermal tissue: 3.3 μg/mg tissue
[3]; heat-separated human epidermis, 6 hours
  Epidermal absorption compared to Eusolex UV-Pearls: 3 fold
